Structures can show the parent of a compound that is named as a salt.
How the values were obtained:
diabetic rats = details: cited from earlier work
Human plasma kallikrein = Human plasma kallikrein (Homo sapiens (Human), UniProt P03952); test: Determination of the Ki for plasma kallikrein; assay type: biochemical; details: 37° C., fluorogenic substrate H-DPro-Phe-Arg-AFC; read-out: Ki (human Pkal)
Procedure: Determination of the Ki for Plasma Kallikrein
Plasma kallikrein inhibitory activity in vitro was determined using standard published methods (see e.g. Johansen et al., Int. J. Tiss. Reac. 1986, 8, 185; Shori et al., Biochem. Pharmacol., 1992, 43, 1209; Stürzebecher et al., Biol. Chem. Hoppe-Seyler, 1992, 373, 1025). Human plasma kallikrein (Protogen) was incubated at 37° C. with the fluorogenic substrate H-DPro-Phe-Arg-AFC and various concentrations of the test compound. Residual enzyme activity (initial rate of reaction) was determined by measuring the change in […] at 410 nm and the Ki value for the test compound was determined.

Human KLK1 = Human KLK1 (Homo sapiens (Human), UniProt P06870); test: Determination of the IC50 for KLK1; assay type: biochemical; details: 37° C., fluorogenic substrate H-DVal-Leu-Arg-AFC
Human KLK1, sequence (P06870 25-262): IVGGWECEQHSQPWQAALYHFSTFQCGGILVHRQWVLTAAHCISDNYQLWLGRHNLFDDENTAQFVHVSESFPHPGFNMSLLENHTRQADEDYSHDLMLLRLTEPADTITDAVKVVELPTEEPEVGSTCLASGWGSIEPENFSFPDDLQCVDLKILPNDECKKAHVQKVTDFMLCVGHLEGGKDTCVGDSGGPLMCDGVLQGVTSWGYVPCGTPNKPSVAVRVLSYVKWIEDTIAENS
Procedure: Determination of the IC50 for KLK1
Human KLK1 (Callbiochem) was incubated at 37° C. with the fluorogenic substrate H-DVal-Leu-Arg-AFC and various concentrations of the test compound. Residual enzyme activity (initial rate of reaction) was determined by measuring the change in optical absorbance at 410 nm and the IC50 value for the test compound was determined.

[1] = Gravimetric vapour sorption (GVS); assay type: physicochemical
Procedure: Gravimetric Vapour Sorption
Sorption isotherms were obtained using a Hiden Isochema moisture sorption analyser (model IGAsorp), controlled by IGAsorp Systems Software V6.50.48. The sample was maintained at a constant temperature (25° C.) by the instrument controls. The humidity was controlled by mixing streams of dry and wet nitrogen, with a total flow of 250 ml·min-1. The instrument was verified for relative humidity content by measuring three calibrated Rotronic salt solutions (10-50-88%). The weight change of the sample was monitored as a function of humidity by a microbalance (accuracy +/−0.005 mg). A defined amount of sample was placed in a tared mesh stainless steel basket under ambient conditions. A full experimental cycle consisted of three scans (sorption, desorption and sorption) at a constant temperature (25° C.) and 10% RH intervals over a 0-90% range (60 minutes for each humidity level).

[2] = Storage stability at 40° C. and 75% relative humidity for 6 months; assay type: physicochemical
Excerpt: Further evidence of the suitability of the crystalline forms for pharmaceutical development is provided by the following stability data.

thrombin = thrombin (Homo sapiens (Human), UniProt P00734); test: Determination of enzyme selectivity: thrombin; assay type: biochemical; details: substrate at Km concentration
Excerpt: (§1) Determination of Enzyme Selectivity

Factor Xa = Factor Xa (Homo sapiens (Human), UniProt P00742); test: Determination of enzyme selectivity: Factor Xa; assay type: biochemical; details: substrate at Km concentration
Factor Xa, sequence (P00742 235-488): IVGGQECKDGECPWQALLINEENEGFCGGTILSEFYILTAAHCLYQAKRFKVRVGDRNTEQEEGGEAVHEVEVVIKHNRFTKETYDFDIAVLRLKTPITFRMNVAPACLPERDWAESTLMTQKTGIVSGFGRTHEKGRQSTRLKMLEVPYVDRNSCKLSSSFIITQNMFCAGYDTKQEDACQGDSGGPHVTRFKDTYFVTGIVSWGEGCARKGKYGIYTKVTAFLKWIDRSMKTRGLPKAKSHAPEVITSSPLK
Factor Xa, sequence (P00742 41-179 partner): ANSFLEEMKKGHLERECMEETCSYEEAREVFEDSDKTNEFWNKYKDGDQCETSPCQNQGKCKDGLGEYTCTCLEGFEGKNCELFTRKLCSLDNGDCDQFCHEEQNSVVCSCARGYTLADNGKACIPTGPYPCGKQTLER
Excerpt: as §1

Factor XIIa = Factor XIIa (Homo sapiens (Human), UniProt P00748); test: Determination of enzyme selectivity: Factor XIIa; assay type: biochemical; details: substrate at Km concentration
Factor XIIa, sequence (P00748 373-615): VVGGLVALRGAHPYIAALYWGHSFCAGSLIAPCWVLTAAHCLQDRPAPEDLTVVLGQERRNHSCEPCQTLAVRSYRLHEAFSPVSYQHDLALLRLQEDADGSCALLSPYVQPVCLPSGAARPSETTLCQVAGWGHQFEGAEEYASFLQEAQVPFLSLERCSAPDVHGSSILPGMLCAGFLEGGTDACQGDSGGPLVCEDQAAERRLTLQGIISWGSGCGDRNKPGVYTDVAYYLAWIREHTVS
Excerpt: as §1

[3] = test system: CA-I stimulated RVP in Sprague Dawley rats; test: Carbonic anhydrase I induced retinal vascular permeability model; assay type: in vivo; details: rat
Procedure: Carbonic Anhydrase I Induced Retinal Vascular Permeability Model
After 30 mins, a second intravitreal injection (5 μL) of PBS or CA-I (200 ng/eye) was given. After 15 minutes, 10% sodium fluorescein was infused and retinal vascular permeability (RVP) was measured by vitreous fluorophotometry 75 minutes following the initial IVT injections. […] Intravitreal injection of N—[(R)-1-[(S)-1-(4-amino methyl-benzylcarbamoyl)-2-phenyl-ethylcarbamoyl]-2-(4-ethoxy-phenyl)-ethyl]-benzamide hydrochloride reduced RVP (stimulated by CA-I injection) by 53±21%.

[4] = Ocular and systemic pharmacokinetics following a single IVT dose; assay type: in vivo, rabbit; details: Dutch-belted rabbits
Procedure: A pharmacokinetic study of N—[(R)-1-[(S)-1-(4-aminomethyl-benzylcarbamoyl)-2-phenyl-ethylcarbamoyl]-2-(4-ethoxy-phenyl)-ethyl]-benzamide hydrochloride was performed to assess the ocular and systemic pharmacokinetics following a single IVT dose in pigmented (Dutch-belted) rabbits. […] Serial blood samples were collected in surviving rabbits.

Human plasma kallikrein, sequence (P03952 391-638): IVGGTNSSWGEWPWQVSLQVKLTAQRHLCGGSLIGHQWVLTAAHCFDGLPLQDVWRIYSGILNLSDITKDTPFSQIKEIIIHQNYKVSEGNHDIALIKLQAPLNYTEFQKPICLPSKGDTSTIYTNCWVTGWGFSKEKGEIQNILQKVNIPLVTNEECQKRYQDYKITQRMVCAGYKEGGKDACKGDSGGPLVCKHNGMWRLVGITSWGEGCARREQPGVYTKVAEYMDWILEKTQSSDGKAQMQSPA
Human plasma kallikrein, sequence (P03952 20-390 partner): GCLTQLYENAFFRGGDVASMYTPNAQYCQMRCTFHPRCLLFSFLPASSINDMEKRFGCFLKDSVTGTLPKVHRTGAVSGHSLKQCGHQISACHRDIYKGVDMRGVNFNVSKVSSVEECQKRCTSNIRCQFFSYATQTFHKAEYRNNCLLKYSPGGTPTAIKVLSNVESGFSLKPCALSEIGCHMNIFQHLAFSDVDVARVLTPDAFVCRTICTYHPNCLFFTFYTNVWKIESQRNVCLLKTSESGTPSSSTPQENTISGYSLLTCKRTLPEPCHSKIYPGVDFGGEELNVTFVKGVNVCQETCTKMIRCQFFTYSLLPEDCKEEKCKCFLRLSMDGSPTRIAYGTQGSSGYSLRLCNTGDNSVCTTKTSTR

In the case of `N=C(N)c1ccc(CNC(=O)c2cnn(Cc3ccccc3)c2)cc1` [ASP-440], the “retinal vascular permeability and retinal blood flow abnormalities” value (diabetic rats) is listed as “ameliorated”.

For `CCOc1ccc(C[C@@H](NC(=O)c2ccccc2)C(=O)N[C@@H](Cc2ccccc2)C(=O)NCc2ccc(CN)cc2)cc1` [Form 1, N—[(R)-1-[(S)-1-(4-aminomethyl-benzylcarbamoyl)-2-phenyl-ethylcarbamoyl]-2-(4-ethoxy-phenyl)-ethyl]-benzamide hydrochloride], the Ki (Human plasma kallikrein) was 0.01 µM, the IC50 (Human KLK1) was greater than 10 µM and the “hydration (GVS)” value ([1]; 25° C., sorption, desorption and sorption, 0-90% RH) was “reversible”. The hygroscopicity ([1]; GVS data) was “absence of significant hygroscopicity”, the “increase in water content (GVS)” value ([1]; normal conditions, 20% to 80% relative humidity) was “only a relatively gradual increase” and the “chemical degradation on storage” value ([2]; 6 months) was “no significant chemical degradation”. For the same compound, the “purity (HPLC) on storage” value ([2]; 6 months) was 99.8 % area, the “change to the XRPD diffractogram on storage” value ([2]; 6 months, double polyethylene bags in polypropylene container) was “no change” and the “water content (Karl Fischer) on storage” value ([2]; after one month and thereafter up to 6 months) was 2.5%-2.8%.

`CCOc1ccc(C[C@@H](NC(=O)c2ccccc2)C(=O)N[C@@H](Cc2ccccc2)C(=O)NCc2ccc(CN)cc2)cc1` [N—[(R)-1-[(S)-1-(4-aminomethyl-benzylcarbamoyl)-2-phenyl-ethylcarbamoyl]-2-(4-ethoxy-phenyl)-ethyl]-benzamide hydrochloride] gave an IC50 (thrombin) greater than 40 µM, an IC50 (Factor Xa) greater than 10 µM and an IC50 (Factor XIIa) greater than 10 µM. For the same compound, the “reduction of RVP stimulated by CA-I injection” value ([3]; intravitreal injection 5 μL of 1 μM, CA-I 200 ng/eye after 30 mins) was 53±21%, the “basal RVP” value ([3]; intravitreal injection of 1 μM alone (no CA-I), no effect compared to PBS alone, vitreous fluorophotometry at 75 minutes) was 3.29±0.21 and the “decline in ocular tissue concentrations” value ([4]; single IVT 210 ng per eye, vitreous, retina/choroid, aqueous humour, over 7 days) was “minimal”. The “plasma concentrations following IVT administration” value ([4]; single bilateral IVT 210 ng per eye, all time points) was “below 1 ng/mL”.

From US9512065B2, “Polymorphs of N-[(R)-1-[(S)-1-(4-aminomethyl-benzylcarbamoyl)-2-phenyl-ethylcarbamoyl]-2-(4-ethoxy-phenyl)-ethyl]-benzamide hydrochloride” (Kalvista Pharmaceuticals Limited, priority 2012, dated 2016)
